Laboratory results as given in patent US9695219B2, “Polypeptide having antibacterial activity and angiogenesis-inducing activity and wound-healing drug containing said polypeptide” (priority 2009, dated 2017).
Where a SMILES comes first, the peptide text is derived from it. [ ]: non-standard residue; d: D form.

Key:
[1] = test system: paper disc model, Crl:CD (SD) rats; assay: Ability to form granulation tissue in paper disc model; format: in vivo, rat; settings: 1, 10 or 100 μg/disc, subcutaneous, eight days
Protocol: Then, the ability to form granulation tissue of these polypeptides in vivo was studied. Each of the peptides which were test substances and whose concentration was respectively 25, 250 and 2500 μg/mL, the bFGF formulation whose concentration was respectively 2.5, 25 and 250 μg/mL (positive controls) or saline (negative controls) was added to a paper disc (FILTER PAPER φ8 mm, […]) in an amount of 40 μl, such that, in the final state, the dosage of each peptide was 1, 10 or 100 μg/disc. The prepared paper discs were embedded subcutaneously into the back of Crl:CD (SD) rats (male, 9-week old, obtained from Charles River Laboratories Japan, Inc.). Eight days later, the paper discs were taken out, and the granulation tissues around the paper discs were collected to determine their wet weight.

Bacteroides fragilis = assay: microbe, parasite or virus in culture; format: cell-based; settings: 37° C. for 20 hours; tested twice, first/second value where not matched
Protocol: (§1) Further, with respect to not only the above-described strains but also various other strains, the “minimum inhibitory concentration (MIC)” was measured as follows. MIC is the lowest concentration of an agent that may inhibit the growth of a bacterium. MIC is used as a parameter for the efficacy of an antibacterial agent, for the strength of bacterial sensitivity, or the like. The bacteria can grow (proliferate) when the concentration is not higher than MIC, and cannot grow when the concentration is higher than MIC. Its measurement is carried out according to a method defined as a standard method by Japanese Society of Chemotherapy or CLINICAL AND LABORATORY […] (CLSI), but, in this Example, its measurement was carried out by a broth microdilution method in accordance with “M100-S17/M7-A7” (Performance Standards for Antimicrobial Susceptibility Testing; Seventeenth Informational Supplement, Vol. 27 No. 1) published by CLSI on January, 2007. That is, sensitivity test of agents was carried out using a microtiter plate or test tubes.
(§2) The bacteria were cultured in liquid media for 4 to 6 hours, and thereafter absorbances at A600 were measured. Bacterial suspensions were diluted with Mueller-Hinton broth (MHB) according to McFarland #0.5. Each strain was added so as to attain about 10^5 CFU/ml (final concentration). Each peptide was prepared to an optional concentration, and the solutions were serially diluted from the concentration. The polypeptide at each concentration stage was added to a microplate or test tubes, and the bacterial suspension was added thereto. Chloramphenicol, amphotericin B, ciprofloxacin, meropenem (MEPM), ciprofloxacin (CPFX), tobramycin (TOB) and oxacillin (OX) were used as positive controls. The plate was incubated at 37° C. for 20 hours, and the lowest concentration where bacterial growth was inhibited was regarded as the minimum inhibitory concentration.

Clostridium ramosum = assay: microbe, parasite or virus in culture; format: cell-based; settings: 37° C. for 20 hours; tested twice, first/second value where not matched
Protocol: as §1, §2

Salmonella typhimurium = assay: microbe, parasite or virus in culture; format: cell-based; settings: 37° C. for 20 hours; tested twice, first/second value where not matched
Protocol: as §1, §2

[2] = test system: diabetes full-thickness defect flap model, hairless rats; assay: Effect to heal diabetic skin ulcers in diabetes flap model; format: in vivo, rat; settings: 0.2 μg/μL
Protocol: For the purpose of producing a diabetes model, 7-week old male hairless rats (HWY/slc) were used, and, on the day before full-thickness defect flaps were created, the blood sugar level was measured and streptozotocin was administered once in tail vein (65 mg/kg). The full-thickness defect flap model was produced by measuring the blood sugar level of the rats on the day after the administration of streptozotocin and deciding only the individuals whose blood sugar level was not less than 300 mg/dL as the diabetes model. The full-thickness defect flaps were created by first creating on the back of each rat a pedicle flap of 2×2 cm (square) whose basal part was on its tail side, and then creating a full-thickness defect site (including dermal layer defect) of 1.4×1.4 cm (square: about 2 cm^2) in the central part of the created pedicle flap. Then, the flap sites were immediately sutured to obtain the full-thickness defect flap model. The model is a model of a diabetic intractable wound or skin ulcer, since the model also lacks dermal layer. […] Thereafter, on every measurement day, the test substance was administered once a day; the change of the area of the wound was calculated by measured values from a digital caliper and digital images; and the area where the wounds had still not healed was measured to calculate the ratio of it relative to the area where the wounds were created (Day 0).

[3] = test system: Normal human dermal fibroblasts (NHDFs); assay: Collagen production test; format: cell-based; settings: 5-day culture
Protocol: Normal human dermal fibroblasts (NHDFs) were plated in a 48-well plate. As a medium, Medium 106 containing 1% FBS was used. After culturing in an incubator at 37° C. under 5% CO2 for about 3 hours, the peptide or FGFb (Positive Control), which had been diluted with the medium to each concentration, was added, and the culturing was further continued. The medium was replaced with a medium containing the same additive on Day 3, and the culturing was continued for another 2 days.
The amount of produced collagen was measured by using Semi-Quantitative Collagen Assay Kit.
After the 5-day culture, the medium was removed by aspiration, and the cells were washed with cold PBS(−). Cold methanol/ethanol was added thereto and the plate was left to stand for 10 minutes at room temperature to fix the cells. The cells were washed twice with cold PBS(−). Then, a staining solution (Dye Solution) was added to each well, and the plate was left to stand at room temperature for 30 minutes. The staining solution was removed, and the cells were washed 4-5 times with deionized water. An extraction solution (Dye Extraction Solution) was added to each well to extract the dye, and the absorbances of the extract at 540 nm and 605 nm were measured.
The amounts of collagen and noncollagen proteins were calculated according to the following equation. […]

Fusarium solani = format: cell-based; settings: 37° C. for 20 hours; tested twice, first/second value where not matched
Protocol: as §1, §2

Trichophyton rubrum = format: cell-based; settings: 37° C. for 20 hours; tested twice, first/second value where not matched
Protocol: as §1, §2

[4] = test system: burn-ulcer model, hairless rats; assay: Effect to heal burn ulcers; format: in vivo, rat; settings: 0.2 μg/μL (20 μg/wound), once a day
Protocol: A burn model was produced using 7-week old male hairless rats (HWY/slc), and the healing effect of the polypeptides of the present invention was examined. The burn-ulcer model was produced by contacting a red hot iron (at 100° C., φ12 mm) to the back of each rat for 5 seconds under anesthesia with ether to induce a burn. […] On the day after inducing the burn, the necrotic skin was surgically removed to obtain a burn model. After producing the burn model, the test substance was administered onto the wound site, and a covering was used to cover over that (Day 0). Only a covering was used in the Control. Thereafter, the test substance was administered once a day on every measurement day. And, on Day 6 and Day 8, the change of the area of the wound was measured by calculating measured values from a digital caliper and digital images, and the area where the burns had still not healed was measured to calculate the ratio of it relative to the area where the burns were created (Day 0). The concentration of the test substances were individually 0.2 μg/μL (20 μg/wound).

With `CC[C@H](C)[C@H](NC(=O)[C@H](CC(C)C)NC(=O)[C@H](CCCCN)NC(=O)[C@@H](N)CC(C)C)C(=O)N[C@@H](Cc1ccccc1)C(=O)N[C@@H](CC(C)C)C(=O)N[C@@H](Cc1c[nH]cn1)C(=O)N[C@@H](CCCNC(=N)N)C(=O)N[C@@H](CC(C)C)C(=O)N[C@@H](CCCCN)C(=O)N[C@@H](CCCNC(=N)N)C(=O)N[C@@H](CCSC)C(=O)N[C@@H](CCCNC(=N)N)C(=O)N[C@@H](CCCCN)C(=O)N[C@@H](CCCNC(=N)N)C(=O)N[C@@H](CC(C)C)C(=O)N[C@H](CCCCN)C(=O)N[C@@H](CCCNC(=N)N)C(=O)N[C@@H](CCCCN)C(N)=O` [SR-08] (H-LKLIFLHRLKRMRKRL[dK]RK-NH2; N-terminus assumed) the “Granulation tissue formation (wet weight around paper disc, FIGS. 5 and 6)” value [1] was “promoted granulation tissue formation in vivo”, the “MIC, Bacteroides fragilis” value (Bacteroides fragilis) was 64/128 and the “MIC, Clostridium ramosum” value (Clostridium ramosum) was 32/16. The “MIC, Salmonella typhimurium” value (Salmonella typhimurium) was 8/4, the “Number of days until complete healing (FIGS. 12 and 13)” value [2] was “significantly smaller than the solvent control group” and the “Collagen production of fibroblasts (FIG. 2)” value [3] was “had an effect to induce collagen production of the fibroblasts”. The “MIC, Fusarium solani” value (Fusarium solani) was 4/8, the “MIC, Trichophyton rubrum” value (Trichophyton rubrum) was 128/64 and the “Healing effect in burn-ulcer model (unhealed area ratio Day 6 and Day 8, FIGS. 14 and 15)” value [4] was “showed a therapeutic effect also in the burn-ulcer model”.
